# Legend:
# [1] = system: rodent cells; parameters: method as in PMID 26603496; conditions: cited from earlier work
# [2] = parameters: method as in PMID 26603496; conditions: cited from earlier work
# [3] = system: human squamous carcinoma cell line Cal27; parameters: method as in PMID 31762274; conditions: cited from earlier work
# [4] = system: cisplatin-resistant Cal27CisR cells; parameters: method as in PMID 31762274; conditions: cited from earlier work
# [5] = system: human ovarian cancer cell line A2780; parameters: method as in PMID 31762274; conditions: cited from earlier work
# [6] = Photo-uncaging efficiency (HPLC after irradiation at 365 nm); format: physicochemical; conditions: 10 min
# Procedure: Photolysis (photo-uncaging) of photocaged HDACi prodrugs was performed at room temperature using a UVP CL-1000 Crosslinker (Analytik Jena GmbH, Jena, Germany) equipped with five UV-A tubes (F8T5/BL368; λmax = 365 nm; Analytik Jena GmbH, Jena, Germany). Hereafter, this entire experimental set-up will be referred to as the “UV reactor”.
# For the photo-uncaging efficiency testing, 10 µL of a 1.0 mM DMSO solution of the respective compound was irradiated for 10 min using the UV reactor described above. Subsequently, 90 µL acetonitrile was added, and the samples were analyzed via HPLC. The amount of photo-cleaved HDACi was determined by comparison with a five-point calibration curve of the respective parent inhibitor, using HPLC/UV detection at an appropriate wavelength (area under the curve; area mAu*min).
# 2. Photouncaging Experiments
# Photolysis (photouncaging) of photocaged HDACi prodrugs was performed at room temperature using an UVP CL-1000 Crosslinker (Analytik Jena GmbH, Jena, Germany) equipped with five UV-A tubes (F8T5/BL368; λmax = 365 nm; Analytik Jena GmbH, Jena, Germany). Hereafter, this entire experimental set-up will be referred to as the "UV-reactor".
# For the deprotection experiments 10 µL of a 1.0 mM DMSO-solution of the respective compound were irradiated for 10 min using the UV-reactor described above. Subsequently, 90 µL acetonitrile were added and the samples were analyzed via HPLC. The amount of photo-cleaved HDACi was determined by comparison with a five-point calibration curve of the respective parent inhibitor using HPLC/UV detection at an appropriate wavelength (area under the curve; area mAu*min).
# Figure S5. Calibration curve of DDK-137 (I).
structure (smiles),measurement,setting,value
O=C(CCCCCCC(=O)Nc1ccccc1)NO [Vorinostat],chromosomal aberrations in rodent cells,[1],provoke chromosomal aberrations
same,mutagenic activity in the Ames test,[2],mutagenic activity
O=C(/C=C/c1cccc(S(=O)(=O)Nc2ccccc2)c1)NO [belinostat],chromosomal aberrations in rodent cells,[1],provoke chromosomal aberrations
same,mutagenic activity in the Ames test,[2],mutagenic activity
"CN(C)c1ccc(C(=O)N(CC(=O)NCc2ccccc2)Cc2ccc(C(=O)Nc3ccccc3N)cc2)cc1 [II, N-{4-[(2-aminophenyl)-carbamoyl]-benzyl}-N-[2-(benzylamino)-2-oxoethyl]-4-(dimethylamino)-benzamide]",antiproliferative effects in Cal27,[3],promising antiproliferative effects
same,reversal of cisplatin resistance,[4],capable of reversing cisplatin resistance
same,antiproliferative effects in A2780,[5],promising antiproliferative effects
"COc1cc(COC(=O)Nc2ccccc2NC(=O)c2ccc(CN(CC(=O)NCc3ccccc3)C(=O)c3ccc(N(C)C)cc3)cc2)c([N+](=O)[O-])cc1OC [pc-II, 4,5-Dimethoxy-2-nitrobenzyl-{2-[4-({N-[2-(benzylamino)-2-oxoethyl]-4-(dimethylamino)benzamido}methyl)benzamido]phenyl}carbamate]",behaviour under treatment with light,[6]; DMSO,decomposed
same,yield of photo-released parent inhibitor,"[6]; DMSO, HPLC with calibration curve",did not release the parent HDACi II in significant quantities
same,concentration of photo-released parent inhibitor after irradiation,[6]; initial concentration 100 µM,not detected
same,melting point,,159 to 161 °C
Cc1[nH]c2ccccc2c1CCNCc1ccc(/C=C/C(=O)NO)cc1 [panobinostat],chromosomal aberrations in rodent cells,[1],provoke chromosomal aberrations
same,mutagenic activity in the Ames test,[2],mutagenic activity
